What was measured:
memapsin 2 = memapsin 2 (Homo sapiens, UniProt P56817); test: Inhibition of memapsin 2 beta-secretase activity toward fluorogenic substrate FS-2; assay type: biochemical; settings: memapsin 2, pH 4, 37° C., 20 minutes pre-incubation, substrate FS-2; read-out: M2Ki
Outline: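 Memapsin 2 was preincubated with compound 20 min at pH 4, 37 °C, then reacted with fluorogenic substrate FS-2 (MCA-SEVNLDAEFK-DNP), an APP-derived Swedish-variant peptide. Inhibition was followed kinetically by fluorescence.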

[1] = tested on: Aβ production in Chinese hamster ovary cells that over-express human APP695 with the London and Swedish mutations; test: Cellular Aβ IC50 determination (Aβ40 sandwich ELISA); assay type: cell-based; settings: Cricetulus griseus; Aβ40 in CHO cells over-expressing human APP695, 24 h incubation
Protocol: The potency of compounds against memapsin 2 activity was determined in a cellular assay of Aβ production. […] Chinese hamster ovary cells that over-express human APP695 with the London and Swedish mutations were seeded in multi-well plates at 10% confluency. Compounds are dissolved in DMSO to concentrations near 1 mM, and diluted into culture media to a final concentration near 4 μM (final 0.4% DMSO). Compounds were diluted serially and applied to cells in multi-well plates 48 h after seeding. Incubation was continued in 5% CO2 at 37° C. for 24 h. Aliquots were removed and assayed for Aβ40 content using a sandwich ELISA (BioSource International). Amount of Aβ40 over the range of concentration of compounds, relative to control incubations, were fit to a 4-parameter IC50 model.

Chain of memapsin 2 (P56817 46-501): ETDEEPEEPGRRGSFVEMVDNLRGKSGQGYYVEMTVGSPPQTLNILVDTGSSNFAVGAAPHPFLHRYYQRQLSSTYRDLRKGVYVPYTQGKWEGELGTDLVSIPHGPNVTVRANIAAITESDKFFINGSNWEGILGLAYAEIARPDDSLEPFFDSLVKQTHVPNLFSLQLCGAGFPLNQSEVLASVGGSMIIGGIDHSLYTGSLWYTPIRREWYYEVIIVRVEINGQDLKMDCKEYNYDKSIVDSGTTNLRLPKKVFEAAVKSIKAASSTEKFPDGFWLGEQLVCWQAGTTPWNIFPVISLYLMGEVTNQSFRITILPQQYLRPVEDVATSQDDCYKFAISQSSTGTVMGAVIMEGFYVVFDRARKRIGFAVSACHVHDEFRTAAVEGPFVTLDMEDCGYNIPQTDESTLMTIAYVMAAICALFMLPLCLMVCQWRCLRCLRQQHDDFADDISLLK

Ki (memapsin 2)	IC50 [1]	SMILES
< 100 nM	< 300 nM	Cc1cc(C(=O)N[C@@H](Cc2ccccc2)[C@H](O)CNCc2cncc(C(C)(C)F)c2)cc(C(=O)N2CCC[C@@H]2c2nc(C)cs2)c1 [Compound 42, N-((2S,3R)-4-((5-(2-fluoropropan-2-yl)pyridin-3-yl)methylamino)-3-hydroxy-1-phenylbutan-2-yl)-3-methyl-5-((R)-2-(4-methylthiazol-2-yl)pyrrolidine-1-carbonyl)benzamide]
< 100 nM	< 300 nM	Cc1csc([C@H]2CCCN2C(=O)c2cc(C(=O)N[C@@H](Cc3ccccc3)[C@H](O)CNCc3cncc(C(C)C)c3)cc(-c3cnccn3)c2)n1 [Compound 43, N-((2S,3R)-3-hydroxy-4-((5-isopropylpyridin-3-yl)methylamino)-1-phenylbutan-2-yl)-3-((R)-2-(4-methylthiazol-2-yl)pyrrolidine-1-carbonyl)-5-(pyrazin-2-yl)benzamide]
< 100 nM	< 300 nM	Cc1csc([C@H]2CCCN2C(=O)c2cncc(C(=O)N[C@@H](Cc3ccccc3)[C@H](O)CNCc3cncc(C(C)(C)F)c3)c2)n1 [Compound 44, N-((2S,3R)-4-((5-(2-fluoropropan-2-yl)pyridin-3-yl)methylamino)-3-hydroxy-1-phenylbutan-2-yl)-5-((R)-2-(4-methylthiazol-2-yl)pyrrolidine-1-carbonyl)nicotinamide]
< 100 nM	< 300 nM	Cc1csc([C@H]2CCCN2C(=O)c2cccc(C(=O)N[C@@H](Cc3ccccc3)[C@H](O)CNCc3cncc(C(C)(C)F)c3)c2)n1 [Compound 45, N-((2S,3R)-4-((5-(2-fluoropropan-2-yl)pyridin-3-yl)methylamino)-3-hydroxy-1-phenylbutan-2-yl)-3-((R)-2-(4-methylthiazol-2-yl)pyrrolidine-1-carbonyl)benzamide]
< 100 nM	< 300 nM	Cc1csc([C@H]2CCCN2C(=O)c2cccc(C(=O)N[C@@H](Cc3ccccc3)[C@H](O)CN[C@H](C)c3cncc(C(C)C)c3)c2)n1 [Compound 46, N-((2S,3R)-3-hydroxy-4-((R)-1-(5-isopropylpyridin-3-yl)ethylamino)-1-phenylbutan-2-yl)-3-((R)-2-(4-methylthiazol-2-yl)pyrrolidine-1-carbonyl)benzamide]
< 100 nM	< 300 nM	Cc1csc([C@H]2CCCN2C(=O)c2cc(C(=O)N[C@@H](Cc3ccccc3)[C@H](O)CNCc3cccc(Cl)c3)cc(N(C)C)c2)n1 [Compound 47, N-((2S,3R)-4-(3-chlorobenzylamino)-3-hydroxy-1-phenylbutan-2-yl)-3-(dimethylamino)-5-((R)-2-(4-methylthiazol-2-yl)pyrrolidine-1-carbonyl)benzamide]
< 100 nM	< 300 nM	Cc1csc([C@H]2CCCN2C(=O)c2cc(C(=O)N[C@@H](Cc3ccccc3)[C@H](O)CNCc3cc(Cl)cc(Cl)c3)cc(N(C)C)c2)n1 [Compound 48, N-((2S,3R)-4-(3,5-dichlorobenzylamino)-3-hydroxy-1-phenylbutan-2-yl)-3-(dimethylamino)-5-((R)-2-(4-methylthiazol-2-yl)pyrrolidine-1-carbonyl)benzamide]
< 100 nM	< 300 nM	Cc1csc([C@H]2CCCN2C(=O)c2cc(C(=O)N[C@@H](Cc3ccccc3)[C@H](O)CNCc3cccc(C(F)(F)F)c3)cc(-c3cnccn3)c2)n1 [Compound 49, N-((2S,3R)-3-hydroxy-1-phenyl-4-(3-(trifluoromethyl)benzylamino)butan-2-yl)-3-((R)-2-(4-methylthiazol-2-yl)pyrrolidine-1-carbonyl)-5-(pyrazin-2-yl)benzamide]
< 100 nM	< 300 nM	Cc1csc([C@H]2CCCN2C(=O)c2cc(CF)cc(C(=O)N[C@@H](Cc3ccccc3)[C@H](O)CNCc3cncc(C(C)(C)F)c3)c2)n1 [Compound 50, 3-(fluoromethyl)-N-((2S,3R)-4-((5-(2-fluoropropan-2-yl)pyridin-3-yl)methylamino)-3-hydroxy-1-phenylbutan-2-yl)-5-((R)-2-(4-methylthiazol-2-yl)pyrrolidine-1-carbonyl)benzamide]
< 100 nM	< 300 nM	Cc1csc([C@H]2CCCN2C(=O)c2cc(CF)cc(C(=O)N[C@@H](Cc3ccccc3)[C@H](O)CNCc3cncc(C(F)(F)F)c3)c2)n1 [Compound 51, 3-(fluoromethyl)-N-((2S,3R)-3-hydroxy-1-phenyl-4-((5-(trifluoromethyl)pyridin-3-yl)methylamino)butan-2-yl)-5-((R)-2-(4-methylthiazol-2-yl)pyrrolidine-1-carbonyl)benzamide]
< 100 nM	< 300 nM	Cc1cc(C(=O)N[C@@H](Cc2ccccc2)[C@H](O)CNCc2cncc(C(C)C)c2)cc(C(=O)N2CCC[C@@H]2c2nc(C)cs2)c1 [Compound 52, N-((2S,3R)-3-hydroxy-4-((5-isopropylpyridin-3-yl)methylamino)-1-phenylbutan-2-yl)-3-methyl-5-((R)-2-(4-methylthiazol-2-yl)pyrrolidine-1-carbonyl)benzamide]
< 100 nM	< 300 nM	Cc1cc(C(=O)N[C@@H](Cc2ccccc2)[C@H](O)CNCc2cccc(C(F)(F)F)c2)cc(C(=O)N2CCC[C@@H]2c2nc(C)co2)c1 [Compound 55, N-((2S,3R)-3-hydroxy-1-phenyl-4-(3-(trifluoromethyl)benzylamino)butan-2-yl)-3-methyl-5-((R)-2-(4-methyloxazol-2-yl)pyrrolidine-1-carbonyl)benzamide]
< 100 nM	< 300 nM	Cc1cc(C(=O)N[C@@H](Cc2ccccc2)[C@H](O)CNCc2cncc(C(C)C)c2)cc(C(=O)N2CCC[C@@H]2c2nc(C)co2)c1 [Compound 56, N-((2S,3R)-3-hydroxy-4-((5-isopropylpyridin-3-yl)methylamino)-1-phenylbutan-2-yl)-3-methyl-5-((R)-2-(4-methyloxazol-2-yl)pyrrolidine-1-carbonyl)benzamide]
< 100 nM	< 300 nM	Cc1csc([C@H]2CCCN2C(=O)c2cc(C(=O)N[C@@H](Cc3ccccc3)[C@H](O)CNCc3cccc(C(F)(F)F)c3)cc(C(F)F)c2)n1 [Compound 57, 3-(difluoromethyl)-N-((2S,3R)-3-hydroxy-1-phenyl-4-(3-(trifluoromethyl)benzylamino)butan-2-yl)-5-((R)-2-(4-methylthiazol-2-yl)pyrrolidine-1-carbonyl)benzamide]
< 100 nM	< 300 nM	Cc1cc(C(=O)N[C@@H](Cc2ccccc2)[C@H](O)CNCc2cncc(C(C)(C)F)c2)cc(C(=O)N2CCC[C@@H]2c2nc(C)co2)c1 [Compound 59, N-((2S,3R)-4-((5-(2-fluoropropan-2-yl)pyridin-3-yl)methylamino)-3-hydroxy-1-phenylbutan-2-yl)-3-methyl-5-((R)-2-(4-methyloxazol-2-yl)pyrrolidine-1-carbonyl)benzamide]
< 100 nM	< 300 nM	Cc1csc([C@H]2CCCN2C(=O)c2cncc(C(=O)N[C@@H](Cc3ccccc3)[C@H](O)CNCc3cc(Cl)cc(Cl)c3)c2)n1 [Compound 60, N-((2S,3R)-4-(3,5-dichlorobenzylamino)-3-hydroxy-1-phenylbutan-2-yl)-5-((R)-2-(4-methylthiazol-2-yl)pyrrolidine-1-carbonyl)nicotinamide]
< 100 nM	< 300 nM	Cc1csc([C@H]2CCCN2C(=O)c2cc(C(=O)N[C@@H](Cc3ccccc3)[C@H](O)CNCc3cccc(C(F)(F)F)c3)ccn2)n1 [Compound 64, N-((2S,3R)-3-hydroxy-1-phenyl-4-(3-(trifluoromethyl)benzylamino)butan-2-yl)-2-((R)-2-(4-methylthiazol-2-yl)pyrrolidine-1-carbonyl)isonicotinamide]
> 201 nM	301 to 500 nM	Cc1cc(CNC[C@@H](O)[C@H](Cc2ccccc2)NC(=O)c2cccc(C(=O)N3CCC[C@@H]3c3nc(C)cs3)c2)on1 [Compound 65, N-((2S,3R)-3-hydroxy-4-((3-methylisoxazol-5-yl)methylamino)-1-phenylbutan-2-yl)-3-((R)-2-(4-methylthiazol-2-yl)pyrrolidine-1-carbonyl)benzamide]
< 100 nM	< 300 nM	Cc1csc([C@H]2CCCN2C(=O)c2cccc(C(=O)N[C@@H](Cc3ccccc3)[C@H](O)CNCc3cc(C)on3)c2)n1 [Compound 66, N-((2S,3R)-3-hydroxy-4-((5-methylisoxazol-3-yl)methylamino)-1-phenylbutan-2-yl)-3-((R)-2-(4-methylthiazol-2-yl)pyrrolidine-1-carbonyl)benzamide]
< 100 nM	< 300 nM	Cc1cc(C(=O)N2CCC[C@@H]2c2nc(C)cs2)cc(C(=O)N[C@@H](Cc2ccccc2)[C@H](O)CNCc2cccc(C(F)(F)F)c2)n1 [Compound 68, N-((2S,3R)-3-hydroxy-1-phenyl-4-(3-(trifluoromethyl)benzylamino)butan-2-yl)-6-methyl-4-((R)-2-(4-methylthiazol-2-yl)pyrrolidine-1-carbonyl)picolinamide]
< 100 nM	< 300 nM	Cc1csc([C@H]2CCCN2C(=O)c2cccc(C(=O)N[C@@H](Cc3ccccc3)[C@H](O)CNCc3cccc(N(C)C)c3)c2)n1 [Compound 69, N-((2S,3R)-4-(3-(dimethylamino)benzylamino)-3-hydroxy-1-phenylbutan-2-yl)-3-((R)-2-(4-methylthiazol-2-yl)pyrrolidine-1-carbonyl)benzamide]
